According to patent US6723745B2, “Amino alcohol derivatives” (Sankyo Company, Limited, priority 2000, dated 2004):

Legend:
[1] = system: Host Versus Graft Reaction (HvGR) in the Rat; experiment: Inhibitory activity against host versus graft reaction (HvGR) in the rat; type: in vivo; conditions: Lewis rats injected with WKAH/Hkm spleen cells into hind foot pads; oral, once a day for 4 successive days; popliteal lymph node weight
Text: Determination of the Inhibitory Activity Against Host Versus Graft Reaction (HvGR) in the Rat
(1) Two Strains of Rats (Lewis Rats (Male, 6 Weeks Old, Charles River Japan) and WKAH/Hkm (Male, 7 Weeks Old, SLC Japan)) Were Used. Five Rats (Host) Per Group Were Used.
The spleen cells were isolated from the spleen of the rats and 1×10^8 cells were suspended in the RPMI640 medium (LIFE TECHNOLOGIES, Rockville Md. USA). One hundred microliter (1×10^7 cells) of the spleen cell suspension whose cells were isolated from either WKAH/Hkm rats or Lewis rats were subcutaneously injected into the bilateral feet pad of the hindlimbs of the Lewis rat.
(3) Administration of the Compound
The compound was suspended in 0.5% tragacanth solution The suspended compound was orally administered to rats in the drug-treated group (Lewis rats injected with spleen cells isolated from AH/Hkm rats, and treated with the compound) at a volume of 5 ml/kg. The treatment was started on the day of the spleen cell injection, once a day, for 4 successive days. Tragacanth solution (0.5%) was orally administered, instead of the suspension of the test compound, to the rats in the same strain group (Lewis rats injected with spleen cells which were isolated from the Lewis rats) and to the rats in the control group (Lewis rats injected spleen cells isolated from WKAH/Hkm rats, and not treated with the test compound).
(4) Determination Procedures for Inhibitory Activity Against HvGR
The average weight of the popliteal lymph node of the same strain rats was subtracted from the weight of the popliteal lymph node of the individual rat (popliteal lymph gland weight due to HvGR). The inhibition rate of the popliteal lymph node weight due to HvGR of the individual rat treated with the test compound against the average weight of the control rats was calculated. The inhibitory activity of the test compound was expressed as an ID50 value (mg/kg) calculated from the dose-inhibition rate by the least square method.

Adjuvant Arthritis = experiment: Inhibitory activity on induction of adjuvant arthritis; type: in vivo, rat; conditions: adjuvant (Mycobacterium butylricum) in right hind paw of female Lewis rats; oral, once daily for 21 days; swelling volume of right hind paw
Method: Determination of the Inhibitory Activity of the Compounds of the Present Invention on Induction of Adjuvant Arthritis
1. Preparation of Adjuvant
Heat-killed, Mycobacterium butylricum was suspended in mineral oil at a concentration of 2 mg/ml and sonicated with an ultrasonic apparatus.
2. Preparation of the Test Compound.
The test compound was suspended in 0.5% Tragacanth solution.
3. Induction of Adjuvant Arthritis
The adjuvant prepared as described in 1 was intradermally injected into the right hind paw of the female rats (usually Lewis rats were used) at a volume of 0.05 ml. Five rats per group were used. In one group of rats, adjuvant was not injected for the control group.
4. Administration of the Compound
The compound solution prepared as described in 2 was orally administered to rats from the injection day of the adjuvant, once daily for 21 days, at a dose of 5 ml/kg. Tragacanth solution (0.5%) was orally administered to one group of rats treated with adjuvant (the control group) and also to rats not treated with adjuvant.
5. Calculation Methods of Inhibitory Activity of the Compound
The volume of the right hind paw was determined with a plethymometer. The volume of the intact paw was subtracted from the individual volume, and the difference was used as the swelling volume. Then the inhibitory activity of the compound was calculated from the individual swelling volume of rats treated with the compound and that in the swelling volume of the control rats. The ID50 value of the compound was obtained from the doses treated and the average inhibitory rate of the group.

With `COc1cccc(OCC#Cc2ccc(CC[C@@](C)(N)CO)s2)c1.O=C(O)/C=C\C(=O)O` [Example 43, (2R)-Amino-2-methyl-4-{5-[3-(3-methoxylphenoxy)propynyl]thiophen-2-yl}butan-1-ol Maleate] the “HvGR ID50 values” [1] was 0.0730 mg/kg.

`C[C@](N)(CO)CCc1ccc(CCCCCC2CCCCC2)s1` [Example 11, (2R)-Amino-2-methyl-4-[5-(5-Cyclohexylpent)thiophen-2-yl]butan-1-ol] was tested, and the “HvGR ID50 values” [1] was 0.0844 mg/kg.

In the case of `COc1ccc(OCC#Cc2ccc(CC[C@@](C)(N)CO)s2)cc1OC.O=C(O)/C=C\C(=O)O` [Example 40, (2R)-Amino-2-methyl-4-{5-[3-(3,4-dimethoxphenoxy)propynyl]thiophen-2-yl}butan-1-ol Maleate], the “HvGR ID50 values” [1] is reported as 0.0683 mg/kg.

With `CCCCCCCCc1ccc(CCC(N)(CO)CO)cc1.Cl` [Reference Compound 1, reference compound] the “HvGR ID50 values” [1] was 0.354 mg/kg and the ID50 value (Adjuvant Arthritis) was 0.1666 mg/kg.

With `Cc1ccc(OCC#Cc2ccc(CC[C@@](C)(N)CO)s2)cc1C.O=C(O)/C=C\C(=O)O` [Example 46, (2R)-Amino-2-methyl-4-{5-[3-(3,4-dimethylphenoxy)propynyl]thiophen-2-yl}butan-1-ol Maleate] the “HvGR ID50 values” [1] was 0.0454 mg/kg.

`Cc1ccc(OCC#Cc2ccc(CC[C@@](C)(N)CO)s2)cc1.O=C(O)/C=C\C(=O)O` [Example 34, (2R)-Amino-2-methyl-4-{5-[3-(4-methylphenoxy)propynyl]thiophen-2-yl}butan-1-ol Maleate] was tested, and the ID50 value (Adjuvant Arthritis) was 0.0470 mg/kg.

`C[C@](N)(CO)CCc1ccc(C#CCCCC2CCCCC2)s1` [Example 1, (2R)-Amino-2-methyl-4-[5-(5-Cyclohexylpent-1-ynyl)thiophen-2-yl]butan-1-ol] was tested, and the “HvGR ID50 values” [1] was 0.0843 mg/kg and the ID50 value (Adjuvant Arthritis) was 0.0897 mg/kg.
